Data as given in ChEMBL document CHEMBL3637782, “GSK Tres Cantos Follow-up TB Screening Data” (2016).

Tested on: Mycobacterium tuberculosis variant bovis
Test: GSK_TB: Effect of compound calculated as % inhibition at single shot or pIC50 ( pIC50 ATP assay M.bovis)
Assay type: functional, organism-based
Details: BCG / Pasteur

SMILES	IC50 [µM]
N#Cc1ncn(-c2ccc3nnc(C(F)(F)F)n3n2)n1	7.94
Clc1nnc(N2CCCC2)c2ccccc12	3.16
COc1ccc(CN2CCN(C(=O)/C=C/c3csc(C)n3)CC2)cc1	5.01
Cc1ccc2oc(SCC(=O)Nc3nccs3)nc2n1	6.31
CCCCNCC1COc2ccc(OC)cc2C1=O (stereo not given)	6.31
O=[N+]([O-])c1cnc(-c2nc3ccccc3[nH]2)s1	3.98
CCCCc1ccc(C(=O)Nc2nnc(S(=O)(=O)CCCC)s2)nc1	7.94
Nc1ccc(S(=O)(=O)Nc2ccnn2-c2ccccc2)cc1 [SULFAPHENAZOLE]	10
O=S(=O)(NCc1ccccc1)c1ccc(-c2cc3ccncc3cc2OC2CCNCC2)s1	2
Nc1ccc(C(O)CNCCc2ccccc2)cc1O (stereo not given)	2
NS(=O)(=O)c1ccc(Nc2cnc3ccccc3n2)cc1	6.31
CCOCn1ccc(NS(=O)(=O)c2ccc(N)cc2)nc1=O	3.16
CC(C)c1noc(N2CCC([C@H](C)Oc3cnc(-c4ccc(S(C)(=O)=O)c(F)c4)cn3)CC2)n1	6.31
O=C(NCc1ccco1)N1CCN(Cc2cccs2)CC1	7.94
O=C(O)CCc1nc2ccccc2oc1=O	7.94
Nc1ccccc1Nc1ccc(Cl)cc1	0.1
Cc1c(C(=O)NCCOc2ccccc2)[nH]c2c1C(=O)CCC2	7.94
CNc1snc(C)c1C(=O)NCCOc1ccc(OC)cc1	3.16
COc1ccc(-c2nnc3sc(Cc4csc(C)n4)nn23)cc1	5.01
O=C(NCc1ccco1)N1CCN(Cc2ccc3c(c2)CCO3)CC1	2.51
Cc1nc(Nc2cnn(Cc3ccccc3F)c2)c2nn(C)c(C)c2n1	2.51
CN(Cc1ccc(Cl)cc1)C(=O)CCc1nc2ccccc2oc1=O	3.98
N#Cc1cc(C(F)(F)F)c2nc(C(=O)NCc3cccs3)c(Cl)n2c1	6.31
COc1ccc(Nc2ncccc2N)cc1	0.794
FC(F)(F)c1nnc2ccc(Sc3nnc(-c4ccco4)o3)nn12	3.16

SMILES	IC50 [µM]
O=C(NCCO)c1c(O)c2ncc(Cc3ccc(F)cc3C(F)(F)F)cc2[nH]c1=O	5.01
O=C(Nc1nc2c(s1)CCCc1cccnc1-2)c1ccccc1C(F)(F)F	2.51
CC1CC1c1ccc(CN2CCc3nc(Nc4ccccc4)sc3CC2)o1 (stereo not given)	6.31
Fc1cccc(Oc2cc(C3CCCNC3)nc(-c3ccncc3)n2)c1 (stereo not given)	12.6
COc1ccc2nccc(NC(=O)C3CCN(CCc4ccc(Cl)cc4)CC3)c2n1	5.01
CCCC/C=C/c1cc2ccncc2cc1OC1CCNCC1	2.51
Cn1cc(CCNC(=O)Nc2ccc(N3CCCCC3)nc2)cn1	20
CNc1nc(SC)nnc1-c1cccc(Cl)c1Cl	12.6
COc1ccc(Nc2nc(N[C@@H]3CCNC3)nc3cc[nH]c(=O)c23)cc1NC(=O)c1ccccc1	5.01
FC(F)(F)Oc1ccc(-c2cc3ccncc3cc2OC2CCNCC2)cc1	3.16
O=C(NCc1ccoc1)N1CCN(Cc2ccc3c(c2)OCO3)CC1	1.26
Fc1ccc(Cc2nnc(-c3ccnc(Nc4ccc(OCCN5CCOCC5)cc4)n3)[nH]2)cc1	7.94
COC(=O)c1ccc(Oc2ccc(-c3csc(C)n3)cc2F)nn1	20
CCOc1cc2ccccc2cc1C(=O)NC	6.31
NCC(c1cccs1)S(=O)(=O)c1ccccc1 (stereo not given)	5.01
NC(=O)c1ccc(CN(C2CC2)S(=O)(=O)c2ccccc2F)cc1	12.6
NC(=O)c1cc2ccc(CC(=O)c3cccs3)cc2s1	15.8
CC(C)Oc1ccc(-c2nnc(-c3ccc4c(c3)CCNCC4)s2)cc1Cl	2.51
Cc1ccc2c(c1)c(=O)cc(C(F)(F)F)n2CCNC(=O)c1ccccn1	6.31
O=C(NCc1ccco1)N1CCN(Cc2ccc(Cl)s2)CC1	1.26
N#Cc1cccc(-c2ccc(NC[C@H]3CC[C@]4(CC3)CN(c3cccnn3)C(=O)O4)nc2)c1	25.1
CC(C)N(C(=O)CNc1ccccc1Nc1ccccc1)c1ccccc1	6.31
COc1ccc(CCNC(=O)C2(n3cnnn3)CCCCC2)cc1	3.98
c1ccc(-c2ncc(-c3ccc(OCCCn4ccnc4)cc3)s2)cc1	7.94
O=C(Nc1nc(-c2ccccn2)cs1)N1CCC(Cc2ccc(F)cc2)CC1	3.98
